The subject of one data set is calf thymus DNA. The experiment in a line: Fluorescence emission and enhancement of compounds bound to calf thymus DNA. In kind it is binding. The note with it: 0.8 μM compound with 500 ng/ml calf thymus DNA in TE buffer; for Emission Max: excited at 488 nm; for Fluorescence Enhancement: emission area 500-715 nm compared to compound 1, defined as 1000-fold.
The subject of the next data set is ssDNA. Put plainly: Microplate fluorescence when bound to ssDNA. In kind it is binding. The note with it: for Ratio to R1, fluorescent emission with ssDNA / fluorescent emission with ssDNA: 500 ng/mL ssDNA; for ssDNA emission: text says 10 ng/μL. The method, then:
The compounds from FIG. 1 were also characterized with respect to their fluorescence enhancement when bound to ssDNA. The compounds from FIG. 1, R1 and R2 were tested in triplicate. 190 μL of 1 μM compound in 1× Tris-EDTA pH7.5, 0.01% CHAPS was added to 10 μL of 4 different concentrations of ssDNA in wells of 96 well Costar black, clear bottom microplates. Plates were read on a SpectraFluor multifunction microplate reader (Tecan) at 491 nm excitation and 520 nm emission. Fluorescence data with ssDNA are shown in FIG. 3 for the different tested compounds.
Next, the compounds were compared for their fluorescence enhancement when bound to ssDNA as described in Example 1. Fluorescence data with ssDNA are shown in FIG. 6 for the different tested compounds.

A further data set relates to dsDNA versus ssDNA. The experiment in a line: In vitro selectivity dsDNA versus ssDNA. In kind it is binding. The method, then: Six compounds (2, 34, 35, 41, 42, and 48) were characterized in in vitro selectivity experiments for double-stranded DNA (dsDNA) versus single-stranded DNA (ssDNA). These compounds were compared against comparative compounds R^1 and R^2.
For each individual compound, the dsDNA and ssDNA fluorescence emission at 10 ng/μL was compared to evaluate in vitro selectivity for dsDNA/ssDNA, as shown in FIG. 4.
Further in vitro selectivity experiments for double-stranded DNA (dsDNA) versus single-stranded DNA (ssDNA) were performed using the methods outlined in Example 3 to compare compounds 2, 34, 41, 42, and 48 to comparative compounds R1 and R2.
For each individual compound, the dsDNA and ssDNA fluorescence emission at 10 ng/μL was calculated to estimate in vitro selectivity, as shown in FIG. 7.

Data set [1] is described as follows: UV/VIS absorption spectra. To be noted: 10 μM compound in 50 mM potassium phosphate buffer (pH 7.0). The class given is physicochemical. As for the experimental part: The UV/VIS absorption spectra were obtained with 10 μM compound solution in 50 mM potassium phosphate buffer (pH 7.0) in a final volume of 3 mL. Measurements were carried out using a Lambda 245 spectrophotometer from Perkin Elmer.

For the next data set, the system named is dsDNA. Put plainly: Microplate fluorescence when bound to dsDNA. The class given is binding. The note with it: 500 ng/mL dsDNA. The method, then: Compounds were tested in triplicate for fluorescence enhancement when bound to dsDNA. 190 μL of 1 μM compound in 1× Tris-EDTA, pH 7.5, 0.01% CHAPS was added to 10 μL of 4 different concentrations of dsDNA (0, 25 ng/mL, 200 ng/mL, and 500 ng/mL) in wells of 96 well Costar black, clear bottom microplates. Plates were read on a SpectraFluor multifunction microplate reader (Tecan) at 491 nm excitation and 520 nm emission.
Compounds were tested for fluorescence enhancement when bound to dsDNA as described in Example 3. Fluorescence data with dsDNA are shown in FIG. 5 for the different tested compounds.

Where [2] appears, read: Example 3, Table 3, 1 μM compound, 491 nm excitation, 520 nm emission.
The mark [3] stands for this setting: Example 3, Table 4, FIG. 4 says 500 ng/mL.
Setting [4] is: Example 4, Table 7, FIG. 7 says 500 ng/mL.
The mark [5] stands for this setting: Example 3, Table 2, 1 μM compound, 491 nm excitation, 520 nm emission.

On to `CCCN(CCCN(C)C)C1=CC(=Cc2sc3ccccc3[n+]2C)c2ccc(OC)cc2N1c1ccccc1.[I-]` [Compound 41], for which the “Emission Max” value in the data set on calf thymus DNA is on record as 517 nm. In the data set with calf thymus DNA, the “Fluorescence Enhancement” value stood at 1020 fold. Moreover, in the data set on ssDNA (Example 3, Table 3), the “Ratio to R1, fluorescent emission with ssDNA” value (“Ratio to R1 … with ssDNA” below) amounted to 2.7. Moreover, the “fluorescent emission with ssDNA” value is 2878 in the data set with ssDNA (setting [2]) and 2814 with ssDNA (Example 4, Table 6). Moreover, the results for the ssDNA emission in the data set on ssDNA (setting [3]) and in the data set on ssDNA (setting [4]) were 2878 and 2814, respectively. Moreover, the “ratio of dsDNA emission versus ssDNA emission” value came to 3.5 with dsDNA versus ssDNA (Example 3, Table 4) and 4.1 in the data set on dsDNA versus ssDNA (Example 4, Table 7). The “Absorbance Max” value in data set [1] came out at 493 nm. For the same compound, the “Ratio to R1, fluorescent emission with dsDNA” value (“Ratio to R1 … with dsDNA” below) is 1.83 in the data set with dsDNA (Example 3, Table 2) and 1.9 with dsDNA (Example 4, Table 5). Besides, the “fluorescent emission with dsDNA” value in the data set with dsDNA (setting [5]) is listed as 9936; in the data set with dsDNA (Example 4, Table 5) it was 11424.
On to `CCCCN(CCCN(C)C)C1=CC(=Cc2sc3ccccc3[n+]2C)c2ccc(OC)cc2N1c1ccccc1.[I-]` [Compound 34], for which the “Emission Max” value in the data set on calf thymus DNA is listed as 517 nm. For the same compound, the “Fluorescence Enhancement” value in the data set on calf thymus DNA came out at 1071 fold. Also, the “Ratio to R1 … with ssDNA” value in the data set on ssDNA (Example 3, Table 3) was determined as 2.4. Also, the “fluorescent emission with ssDNA” value came out at 2578 in the data set with ssDNA (setting [2]) and 2603 in the data set on ssDNA (Example 4, Table 6). Besides, the ssDNA emission is reported as 2578 with ssDNA (setting [3]) and 2603 in the data set with ssDNA (setting [4]). In addition, the “ratio of dsDNA emission versus ssDNA emission” value with dsDNA versus ssDNA (Example 3, Table 4) came to 4.1; with dsDNA versus ssDNA (Example 4, Table 7), 4.8. The “Absorbance Max” value in data set [1] is reported as 488 nm. For the same compound, the “Ratio to R1 … with dsDNA” value came out at 1.92 in the data set with dsDNA (Example 3, Table 2) and 2.1 in the data set on dsDNA (Example 4, Table 5). For the same compound, the “fluorescent emission with dsDNA” value stood at 10452 in the data set with dsDNA (setting [5]) and 12434 in the data set with dsDNA (Example 4, Table 5).
For the compound `CCCN(CCC[N+](C)(C)C)C1=CC(=Cc2sc3ccccc3[n+]2C)c2ccccc2N1c1ccccc1.[Cl-].[I-]` [Compound 2], in the data set on calf thymus DNA, the “Emission Max” value came out at 523 nm. Besides, in the data set on calf thymus DNA, the “Fluorescence Enhancement” value came out at 964 fold. Also, the “Ratio to R1 … with ssDNA” value in the data set with ssDNA (Example 3, Table 3) is listed as 1.6. The “fluorescent emission with ssDNA” value with ssDNA (setting [2]) turned out to be 1773; in the data set on ssDNA (Example 4, Table 6), 1767. For the same compound, the ssDNA emission is listed as 1773 with ssDNA (setting [3]) and 1767 in the data set with ssDNA (setting [4]). In addition, the “ratio of dsDNA emission versus ssDNA emission” value in the data set with dsDNA versus ssDNA (Example 3, Table 4) is listed as 5.4; in the data set with dsDNA versus ssDNA (Example 4, Table 7), 5.9. Besides, in data set [1], the “Absorbance Max” value was determined as 501 nm. Also, the “Ratio to R1 … with dsDNA” value in the data set with dsDNA (Example 3, Table 2) was determined as 1.74; in the data set with dsDNA (Example 4, Table 5), 1.8. Further, the “fluorescent emission with dsDNA” value in the data set with dsDNA (setting [5]) was found to be 9494; in the data set with dsDNA (Example 4, Table 5), 10339.

For the origin of these results see patent US20200263231A1, “Fluorogenic dyes for high sensitivity DNA detection” (LIFE TECHNOLOGIES CORPORATION, priority 2016, published 2020).
